{
  "source": "patent EP0548790A1",
  "about": "“(1'S)-Hydroxyalkyloxapenem-3-carboxylic acids and their use as beta-lactamase inhibitors” (ELI LILLY AND COMPANY, priority 1991, dated 1993)",
  "key": {"E. coli TEM 1": {"system": "E. coli TEM 1", "experiment": "agar diffusion test, inhibition zone diameter (Hemmhof), inhibitor alone and combined with Cefaclor", "format": "cell-based, E. coli W 311O3 R6K (TEM 1)", "conditions": "for zone of inhibition at 10 µg/disc: Escherichia coli, TEM1, read-out: Hemmhofdurchmesser mm (E. coli TEM 1) I (10 mcg); for Hemmhofzuwachs, d.h. die Schutzwirkung: increase of zone with Cefaclor versus alone; for Eigenwirkung als Antibiotika: inhibitor alone; for Wirkung als Betalactamasehemmer gegen E. coli TEM 1: protection of Cefaclor against the bacterial enzyme", "description": "\"like\" bedeutet gleiche absolute Konfiguration zweier benachbarter Chiralitätszentren. Als Testkeim wurde ein besonders starker Betalactamase-Bildner verwendet. E. coli W 311O3 R6K (TEM 1) wurde deshalb mehrfach in einer Kulturlösung mit 2O mcg/ml Cefaclor bebrütet. Cefaclor allein (3O mcg) ergab einen Hemmhof von 16 mm, mit 1O mcg Clavulansäure kombiniert einen solchen von 22 mm Durchmesser."}, "[1]": {"molecular_target": "T1, Cephalosporinasen aus Enterobacter cloacae (Enterobacter cloacae, UniProt P05364)", "T1 construct": "dagegen ist auch gegen diese Keime als Betalactamasehemmer wirksam; endogenous in cells", "T1 sequence (P05364 21-381)": "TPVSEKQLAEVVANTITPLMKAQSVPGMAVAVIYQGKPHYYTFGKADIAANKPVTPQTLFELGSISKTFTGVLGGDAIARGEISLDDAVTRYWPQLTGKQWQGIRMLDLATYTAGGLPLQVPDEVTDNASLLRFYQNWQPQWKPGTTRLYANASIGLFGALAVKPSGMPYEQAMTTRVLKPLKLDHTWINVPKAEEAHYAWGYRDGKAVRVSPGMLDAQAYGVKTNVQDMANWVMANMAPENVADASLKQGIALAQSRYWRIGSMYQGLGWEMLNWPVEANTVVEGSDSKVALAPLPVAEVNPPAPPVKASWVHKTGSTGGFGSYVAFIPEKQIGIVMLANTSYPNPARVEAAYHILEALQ", "conditions": "reported in Amer. J. Med. 79 (suppl. 5B), 194 (1985); cited from earlier work"}, "[2]": {"molecular_target": "T2, Cephalosporinasen aus Pseudomonas aeruginosa (Pseudomonas aeruginosa, UniProt P24735)", "T2 construct": "dagegen ist auch gegen diese Keime als Betalactamasehemmer wirksam; endogenous in cells", "T2 sequence (P24735 27-397)": "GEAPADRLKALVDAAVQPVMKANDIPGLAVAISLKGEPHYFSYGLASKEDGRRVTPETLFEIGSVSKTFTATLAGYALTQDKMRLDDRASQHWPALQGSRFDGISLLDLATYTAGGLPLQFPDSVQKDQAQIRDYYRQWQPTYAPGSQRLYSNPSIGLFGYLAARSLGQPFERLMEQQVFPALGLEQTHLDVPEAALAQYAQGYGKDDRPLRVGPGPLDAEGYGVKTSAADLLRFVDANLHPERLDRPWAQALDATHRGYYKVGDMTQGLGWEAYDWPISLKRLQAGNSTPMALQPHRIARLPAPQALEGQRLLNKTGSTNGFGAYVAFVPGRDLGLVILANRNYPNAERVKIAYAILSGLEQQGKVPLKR", "conditions": "reported in Amer. J. Med. 79 (suppl. 5B), 194 (1985); cited from earlier work"}, "Pseudomonas aeruginosa": {"system": "Pseudomonas aeruginosa", "conditions": "comparison with Clavulansäure; from earlier filing EP 89117433.6; cited from earlier work"}, "[3]": {"system": "Penicillin resistenten Staph. aureus", "conditions": "comparison with Clavulansäure; from earlier filing EP 89117433.6; cited from earlier work"}, "[4]": {"molecular_target": "T2, Cephalosporinasen aus Pseudomonas aeruginosa", "experiment": "beta-lactamase inhibitor activity against cephalosporinase producer", "conditions": "requires partner antibiotic able to enter the bacterium"}, "[5]": {"molecular_target": "T1, Cephalosporinasen aus Enterobacter cloacae", "experiment": "beta-lactamase inhibitor activity against cephalosporinase producer", "conditions": "requires partner antibiotic able to enter the bacterium"}, "E. cloacae": {"system": "E. cloacae", "experiment": "inhibition zone diameter, third-generation cephalosporin combined with inhibitor", "format": "cell-based", "description": "Die erfindungsgemässen Verbindungen sind in der Lage, schon in geringen Konzentrationen die Hemmwirkung aller untersuchter Penicilline wie z. B. Amoxycillin, Piperacillin, Mezlocillin oder Cephalosporine wie z. B. Cefaclor, Cefoperazon gegen Betalactamase-bildende Bakterien zu verstärken. Auch gemeinhin als Betalactamase-stabile geltende Cephalosporine der dritten Generation wie z. B. Cefotaxim oder Ceftriaxon (je 3O mcg) ergaben in der Kombination mit Ie (1O mcg) erstmals deutliche Hemmhöfe vom Durchmesser 27 bzw. 26 mm gegen E. cloacae. Die erfindungsgemässen Verbindungen sind stark wirksam gegen Penicillinasen und Cephalosporinasen."}},
  "data": [
    {"smiles": "O=C(O)[C@H]1/C(=C/CO)O[C@@H]2CC(=O)N21", "note": "[Clavulansäure]", "values": [
      {"measurement": "Hemmhof Durchmesser", "setting": "E. coli TEM 1; Cefaclor 3O mcg combined with 1O mcg Clavulansäure", "value": 22, "unit": "mm"},
      {"measurement": "Wirkung gegen Cephalosporinasen", "setting": "[1]", "value": "nicht"},
      {"measurement": "Wirkung gegen Cephalosporinasen", "setting": "[2]", "value": "nicht"}
    ]},
    {"smiles": "CC(C)(C)C1=C(C(=O)O)N2C(=O)[C@H](CO)[C@H]2O1", "note": "(racemic) [Ia, 2-tert-Butyl-6-hydroxymethyloxapenem-3-carbonsäure (K-Salz)]", "values": [
      {"measurement": "zone of inhibition at 10 µg/disc", "setting": "E. coli TEM 1", "value": 17, "unit": "mm"},
      {"measurement": "Hemmhofzuwachs, d.h. die Schutzwirkung", "setting": "E. coli TEM 1", "value": "vergleichsweise gering"},
      {"measurement": "Eigenwirkung als Antibiotika", "setting": "E. coli TEM 1", "value": "gute Eigenwirkung"},
      {"measurement": "Wirksamkeit in der Kombination mit Mezlocillin", "setting": "Pseudomonas aeruginosa", "value": "wirksamer als Clavulansäure"},
      {"measurement": "Wirksamkeit in der Kombination mit Mezlocillin", "setting": "[3]", "value": "wirksamer als Clavulansäure"}
    ]},
    {"smiles": "C[C@H](O)[C@H]1C(=O)N2C(C(=O)O)=C(C(C)(C)C)O[C@H]12", "note": "(racemic) [Ib, racemischer trans-2-tert-Butyl-6-(unlike-hydroxyethyl)oxapenem-3-carbonsäure]", "values": [
      {"measurement": "zone of inhibition at 10 µg/disc", "setting": "E. coli TEM 1", "value": 0, "unit": "mm"},
      {"measurement": "Wirkung als Betalactamasehemmer gegen E. coli TEM 1", "setting": "E. coli TEM 1", "value": "besonders gute Wirkung"}
    ]},
    {"smiles": "C[C@H](O)[C@H]1C(=O)N2C(C(=O)O)=C(C(C)(C)C)O[C@@H]12", "note": "(racemic) [Ic, racemischer cis-2-tert-Butyl-6-(unlike-hydroxyethyl)oxapenem-3-carbonsäure]", "values": [
      {"measurement": "zone of inhibition at 10 µg/disc", "setting": "E. coli TEM 1", "value": 9, "unit": "mm"}
    ]},
    {"smiles": "C[C@@H](O)[C@H]1C(=O)N2C(C(=O)O)=C(C(C)(C)C)O[C@H]12", "note": "[Id]", "values": [
      {"measurement": "zone of inhibition at 10 µg/disc", "setting": "E. coli TEM 1", "value": 23, "unit": "mm"},
      {"measurement": "Hemmhofzuwachs, d.h. die Schutzwirkung", "setting": "E. coli TEM 1", "value": "vergleichsweise gering"},
      {"measurement": "Eigenwirkung als Antibiotika", "setting": "E. coli TEM 1", "value": "gute Eigenwirkung"}
    ]},
    {"smiles": "C[C@H](O)[C@H]1C(=O)N2C(C(=O)O)=C(C(C)(C)C)O[C@H]12", "note": "[Ie, (5R,6R)-2-tert-Butyl-((1S)-hydroxyethyl)oxapenem-3-carbonsäure (K-Salz)]", "values": [
      {"measurement": "zone of inhibition at 10 µg/disc", "setting": "E. coli TEM 1", "value": 0, "unit": "mm"},
      {"measurement": "Wirkung als Betalactamasehemmer gegen E. coli TEM 1", "setting": "E. coli TEM 1", "value": "besonders gute Wirkung"},
      {"measurement": "Wirkung als Betalactamasehemmer", "setting": "[4]", "value": "wirksam"},
      {"measurement": "Wirkung als Betalactamasehemmer", "setting": "[5]", "value": "wirksam"},
      {"measurement": "Hemmhöfe vom Durchmesser", "setting": "E. cloacae; Cefotaxim 3O mcg combined with Ie 1O mcg", "value": 27, "unit": "mm"},
      {"measurement": "Hemmhöfe vom Durchmesser", "setting": "E. cloacae; Ceftriaxon 3O mcg combined with Ie 1O mcg", "value": 26, "unit": "mm"}
    ]},
    {"smiles": "N[C@@H](C(=O)N[C@@H]1C(=O)N2C(C(=O)O)=C(Cl)CS[C@H]12)c1ccccc1", "note": "[Cefaclor, reference compound]", "values": [
      {"measurement": "Hemmhof", "setting": "E. coli TEM 1; Cefaclor allein (3O mcg)", "value": 16, "unit": "mm"}
    ]}
  ]
}
